Usually EC50 stands for the concentration needed to bring the measured effect to its halfway point. Lower therefore signals higher potency in that assay.

The test system of one experiment is JIMT-1 (Her2+++). The note with it: anti-HER2 IgG ADC, treatment 5 days, 50% cell growth inhibition. The protocol: (§1) The antibody used was an anti-HER2 IgG class of antibody. Seven breast cancer cell lines with various level of Her2 expression as indicated with plus or minus signs in the table below were plated in 96 well plate. The ADCs as listed under Drug-Linker ID were serial diluted and added onto cells for treatment for 5 days. At the end of the study, cell proliferation was measured by Promega's CellTitreGlo.

A further experiment concerns SKBR-3 (Her2+++). The note with it: anti-HER2 IgG ADC, treatment 5 days, 50% cell growth inhibition. The protocol:
as §1

A further experiment relates to BT474 (Her2+++). The note with it: anti-HER2 IgG ADC, treatment 5 days, 50% cell growth inhibition. The protocol:
as §1

The next experiment relates to HCC1954 (Her2+++). As to conditions: anti-HER2 IgG ADC, treatment 5 days, 50% cell growth inhibition. The procedure: as §1
The test system of the next experiment is MCF-7 (Her2+/−). As to conditions: anti-HER2 IgG ADC, treatment 5 days, 50% cell growth inhibition. The procedure:
as §1

For experiment [1], the system named is Seven breast cancer cell lines with various level of Her2 expression. The experiment in a line: Overall assessment of anti-HER2 ADCs over the cell panel (efficacy, toxicity, therapeutic window). The class given is cell-based. The procedure: as §1
A further experiment deals with MDA-453 (Her2++). The note with it: anti-HER2 IgG ADC, treatment 5 days, 50% cell growth inhibition. The protocol: as §1
A further experiment concerns MDA468 (Her2−). The note with it: anti-HER2 IgG ADC; MDA468 (Her2−) control cell line; treatment 5 days; 50% cell growth inhibition. The protocol: as §1

Consider `CCN(C(=O)CNC(=O)OCc1ccc(NC(=O)[C@H](CC(N)=O)NC(=O)[C@H](C)NC(=O)[C@H](C)NC(=O)CCC(=O)N2CCC(C(=O)O)CC2)cc1)C1COC(OC2C(O[C@H]3C#C/C=C\C#C[C@]4(O)CC(=O)C(NC(=O)OC)=C3/C4=C\CSSC(C)(C)CC(=O)NCC(O)CO)OC(C)C(NOC3CC(O)C(SC(=O)c4c(C)c(I)c(OC5OC(C)C(O)C(OC)C5O)c(OC)c4OC)C(C)O3)C2O)CC1OC` (stereo partly drawn) [Compound 15], for which the EC50 is 0.17 nM in the experiment on JIMT-1 (Her2+++); 0.17 nM in the experiment with SKBR-3 (Her2+++); 1.46 nM with BT474 (Her2+++); 0.064 nM with HCC1954 (Her2+++); above 100 nM in the experiment on MCF-7 (Her2+/−). In experiment [1], the “Assessment of efficacy and toxicity / therapeutic window” value is “successful candidates with high efficacy and good therapeutic window”.
Regarding `CCN(C(=O)CNC(=O)OCc1ccc(NC(=O)[C@H](C)NC(=O)[C@@H](NC(=O)CCCn2nnc(CBr)c2CBr)C(C)C)cc1)C1COC(OC2C(O[C@H]3C#C/C=C\C#C[C@]4(O)CC(=O)C(NC(=O)OC)=C3/C4=C\CSSC(C)(C)CCC(=O)NCCOCCOCCOCCO)OC(C)C(NOC3CC(O)C(SC(=O)c4c(C)c(I)c(OC5OC(C)C(O)C(OC)C5O)c(OC)c4OC)C(C)O3)C2O)CC1OC` (stereo partly drawn) [Compound 30], the EC50 turned out to be 0.09 nM in the experiment with JIMT-1 (Her2+++); 0.065 nM with SKBR-3 (Her2+++); 1.41 nM with BT474 (Her2+++); 0.05 nM with MDA-453 (Her2++); 24 nM with MDA468 (Her2−); 0.5 nM with MCF-7 (Her2+/−). Moreover, the “Assessment of efficacy and toxicity / therapeutic window” value in experiment [1] is “successful candidates with high efficacy and good therapeutic window”.
As for `CCN(C(=O)CNC(=O)OCc1ccc(NC(=O)[C@H](C)NC(=O)[C@@H](NC(=O)CCCC(=O)O)C(C)C)cc1)C1COC(OC2C(O[C@H]3C#C/C=C\C#C[C@]4(O)CC(=O)C(NC(=O)OC)=C3/C4=C\CSSC(C)CCC(=O)NCC(O)CO)OC(C)C(NOC3CC(O)C(SC(=O)c4c(C)c(I)c(OC5OC(C)C(O)C(OC)C5O)c(OC)c4OC)C(C)O3)C2O)CC1OC` (stereo partly drawn) [Compound 37], the EC50 was determined as 0.141 nM in the experiment on JIMT-1 (Her2+++); 0.234 nM in the experiment with SKBR-3 (Her2+++); 1.53 nM in the experiment with BT474 (Her2+++); 0.33 nM in the experiment on MDA-453 (Her2++); 16.9 nM in the experiment on MDA468 (Her2−); 0.33 nM with MCF-7 (Her2+/−). The “Assessment of efficacy and toxicity / therapeutic window” value in experiment [1] was “successful candidates with high efficacy and good therapeutic window”.
For the compound `CCN(C(=O)CNC(=O)OCc1ccc(NC(=O)[C@H](C)NC(=O)[C@@H](NC(=O)CCCC(=O)O)C(C)C)cc1)C1COC(OC2C(O[C@H]3C#C/C=C\C#C[C@]4(O)CC(=O)C(NC(=O)OC)=C3/C4=C\CSSC(C)CCC(=O)NC3C(O)OC(CO)C(O)C3O)OC(C)C(NOC3CC(O)C(SC(=O)c4c(C)c(I)c(OC5OC(C)C(O)C(OC)C5O)c(OC)c4OC)C(C)O3)C2O)CC1OC` (stereo partly drawn) [Compound 40], the EC50 with JIMT-1 (Her2+++) is 0.35 nM; in the experiment on SKBR-3 (Her2+++) it was 0.657 nM; with BT474 (Her2+++) it was 0.9 nM; with MDA-453 (Her2++) it was 0.1 nM; in the experiment on MDA468 (Her2−), 41.7 nM; with MCF-7 (Her2+/−), 90 nM. Further, in experiment [1], the “Assessment of efficacy and toxicity / therapeutic window” value is “successful candidates with high efficacy and good therapeutic window”.
